# Test results taken from publication PMC12775434, “Ultra-large virtual screening unveils potent agonists of the neuromodulatory orphan receptor GPR139” (Nature Communications, 2025).
# Where “and” joins values, the source holds several entries; their conditions need not be identical. Equal values may be shown once. Read-outs that look alike come from different tables or passages of the source.
# Experiments:
# Assay type in all cases: cell-based
# GPR139 [1] = target: T1, GPR139 (Homo sapiens, UniProt Q6DWJ6); assay: Ca2+ mobilization assay, agonist mode, stable GPR139-CHOk1 cell line; settings: for Emax: normalized to Lundbeck Cmp 1a, read-out: Emax (%) Ca2+
# T1 sequence (Q6DWJ6 1-353): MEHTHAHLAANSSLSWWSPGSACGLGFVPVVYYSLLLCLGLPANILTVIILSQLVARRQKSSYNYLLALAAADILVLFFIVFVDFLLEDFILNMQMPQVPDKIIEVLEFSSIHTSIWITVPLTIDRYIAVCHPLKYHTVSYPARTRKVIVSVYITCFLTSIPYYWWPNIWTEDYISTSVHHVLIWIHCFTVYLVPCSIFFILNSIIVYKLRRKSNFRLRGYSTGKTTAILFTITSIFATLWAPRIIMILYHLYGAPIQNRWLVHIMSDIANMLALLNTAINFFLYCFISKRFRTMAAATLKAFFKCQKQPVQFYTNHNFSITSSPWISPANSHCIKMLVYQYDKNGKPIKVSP
# Summary of the method: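 Agonist activity of compounds is assessed in stably transfected CHO-K1 cells using the calcium dye Fluo-4 at 37 °C in HEPES-buffered HBSS (pH 7.4). Efficacy is expressed relative to the reference agonist Lundbeck Cmp 1a, set as 100%.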
# GPR139 [2] = target: T1, GPR139; assay: Ca2+ mobilization assay, antagonist mode (EC80 800 nM Lundbeck Cmp 1a after 20 min preincubation), GPR139-CHOk1; settings: individual replicates (Supplementary Figure 4)
# Summary of the method: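 Fluo-4-loaded GPR139-CHOk1 cells in HEPES-buffered HBSS (pH 7.4, 2.5 mM probenecid) given test compounds at 10 µM, then after 20 min challenged with 800 nM Lundbeck Cmp 1a (EC80). Calcium fluorescence read at 37 °C, 485/525 nm.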
# [3] = target: T2, human muscarinic acetylcholine M1 receptor (M1R) (Homo sapiens, UniProt P11229); assay: Ca2+ mobilization counter-screen in M1R-CHOk1 cells; settings: individual replicates (Supplementary Figure 5)
# T2 sequence (P11229 1-460): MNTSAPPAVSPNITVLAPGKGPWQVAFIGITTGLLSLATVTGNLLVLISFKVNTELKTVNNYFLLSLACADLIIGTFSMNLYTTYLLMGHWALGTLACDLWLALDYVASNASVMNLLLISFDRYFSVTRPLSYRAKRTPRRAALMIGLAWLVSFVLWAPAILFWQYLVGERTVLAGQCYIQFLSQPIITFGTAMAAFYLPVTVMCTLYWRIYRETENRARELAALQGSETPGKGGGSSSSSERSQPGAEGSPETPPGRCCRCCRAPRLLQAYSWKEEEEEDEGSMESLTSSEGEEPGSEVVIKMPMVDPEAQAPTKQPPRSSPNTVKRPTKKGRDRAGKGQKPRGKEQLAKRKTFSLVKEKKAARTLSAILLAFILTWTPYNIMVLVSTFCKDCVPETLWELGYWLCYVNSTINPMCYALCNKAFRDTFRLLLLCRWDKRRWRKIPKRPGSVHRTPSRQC
# Summary of the method: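 M1R-CHOk1 cells seeded 20–24 h, loaded with 2 µM Fluo-4 AM (2.5 mM probenecid, 0.01% Pluronic F-68) for 1 h at 37 °C in HBSS/20 mM HEPES pH 7.4. Compounds added after baseline (≤0.3% DMSO); calcium fluorescence read at 37 °C, ex 485/em 525 nm.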
# [4] = Agonist mode, individual replicates (Supplementary Figure 4)
# [5] = GPR139-CHOk1, read-out: EC50, Ca2+ mobilization
# [6] = Supplementary Table 2, mean ± SEM
# [7] = log [Compound] M = -4.5, individual replicate columns
# [8] = log [Compound] M = -5.0, individual replicate columns
# [9] = log [Compound] M = -5.5, individual replicate columns
# [10] = log [Compound] M = -6.0, individual replicate columns
# [11] = log [Compound] M = -6.5, individual replicate columns
# [12] = log [Compound] M = -7.0, individual replicate columns
# [13] = log [Compound] M = -7.5, individual replicate columns
# [14] = log [Compound] M = -8.0, individual replicate columns
# [15] = log [Compound] M = -8.5, individual replicate columns
# [16] = log [Compound] M = -9.0, individual replicate columns
# [17] = Supplementary Table 2, mean ± SEM, read-out: pEC50 Ca2+ (converted)
SMILES,Ca2+ signal (% of Cmp 1a) (GPR139 [1]; [4]),EC50 (GPR139 [1]; [5]) [µM],Emax (GPR139 [1]; [6]) [%],Ca2+ signal (% of Cmp 1a) (GPR139 [1]; [7]),Ca2+ signal (% of Cmp 1a) (GPR139 [1]; [8]),Ca2+ signal (% of Cmp 1a) (GPR139 [1]; [9]),Ca2+ signal (% of Cmp 1a) (GPR139 [1]; [10]),Ca2+ signal (% of Cmp 1a) (GPR139 [1]; [11]),Ca2+ signal (% of Cmp 1a) (GPR139 [1]; [12]),Ca2+ signal (% of Cmp 1a) (GPR139 [1]; [13]),Ca2+ signal (% of Cmp 1a) (GPR139 [1]; [14]),Ca2+ signal (% of Cmp 1a) (GPR139 [1]; [15]),Ca2+ signal (% of Cmp 1a) (GPR139 [1]; [16]),Ca2+ signal (% of Cmp 1a) (GPR139 [2]),Ca2+ signal (% of Carbachol) [3],EC50 (GPR139 [1]; [17]) [µM],fold decrease in potency relative to parent compound 1 (GPR139 [1]; Ca2+ mobilization EC50)
"Cc1ccc(-c2nc(CC(=O)NC(C)c3ccccc3)no2)cc1 (stereo not shown) [Compound 1.14, CC(C1=CC=CC=C1)NC(CC2=NOC(C3=CC=C(C)C=C3)=N2)=O]",71 % of Cmp 1a and 82 % of Cmp 1a and 46 % of Cmp 1a,0.4,89 ± 15,97 % of Cmp 1a and 92 % of Cmp 1a and 89 % of Cmp 1a and 44 % of Cmp 1a,79 % of Cmp 1a and 86 % of Cmp 1a and 77 % of Cmp 1a and 48 % of Cmp 1a,61 % of Cmp 1a and 79 % of Cmp 1a and 69 % of Cmp 1a and 48 % of Cmp 1a,61 % of Cmp 1a and 52 % of Cmp 1a and 58 % of Cmp 1a and 40 % of Cmp 1a,42 % of Cmp 1a and 32 % of Cmp 1a and 38 % of Cmp 1a and 28 % of Cmp 1a,17 % of Cmp 1a and 12 % of Cmp 1a and 27 % of Cmp 1a and 22 % of Cmp 1a,5.33 % of Cmp 1a and 7 % of Cmp 1a and 30 % of Cmp 1a and -6 % of Cmp 1a,12 % of Cmp 1a and 2.67 % of Cmp 1a (2×) and 0.667 % of Cmp 1a,-1.67 % of Cmp 1a and -4 % of Cmp 1a and 1.67 % of Cmp 1a,8 % of Cmp 1a and 10 % of Cmp 1a and -3.67 % of Cmp 1a and 1 % of Cmp 1a,7 % of Cmp 1a and -0.667 % of Cmp 1a and 13 % of Cmp 1a,-9 % of Carbachol and -1 % of Carbachol and 10 % of Carbachol,–,–
"COc1ccc(-c2nc(CC(=O)NC(C)c3ccccc3)no2)cc1 (stereo not shown) [Compound 1.18, COC1=CC=C(C2=NC(CC(NC(C3=CC=CC=C3)C)=O)=NO2)C=C1]",43 % of Cmp 1a and 66 % of Cmp 1a and 77 % of Cmp 1a,1,72 ± 5,87 % of Cmp 1a and 72 % of Cmp 1a and 75 % of Cmp 1a,75 % of Cmp 1a and 67 % of Cmp 1a and 70 % of Cmp 1a,73 % of Cmp 1a and 53 % of Cmp 1a and 59 % of Cmp 1a,61 % of Cmp 1a and 23 % of Cmp 1a and 42 % of Cmp 1a,30 % of Cmp 1a and 3.38 % of Cmp 1a and 24 % of Cmp 1a,7 % of Cmp 1a and 9 % of Cmp 1a and 8 % of Cmp 1a,6 % of Cmp 1a and 11 % of Cmp 1a and 5.71 % of Cmp 1a,-0.63 % of Cmp 1a and 3 % of Cmp 1a and 8 % of Cmp 1a,3.39 % of Cmp 1a and 6.59 % of Cmp 1a and 3.49 % of Cmp 1a,0.103 % of Cmp 1a and 9 % of Cmp 1a and 2.64 % of Cmp 1a,26 % of Cmp 1a and 19 % of Cmp 1a and 8 % of Cmp 1a,2 % of Carbachol and 2.18 % of Carbachol and -0.905 % of Carbachol,–,–
"COc1ccc(-c2nc(CC(=O)NC(C)c3ccccc3)no2)cn1 (stereo not shown) [Compound 1.26, COC1=NC=C(C2=NC(CC(NC(C3=CC=CC=C3)C)=O)=NO2)C=C1]",85 % of Cmp 1a and 87 % of Cmp 1a and 69 % of Cmp 1a,–,94 ± 9,87 % of Cmp 1a and 80 % of Cmp 1a and 98 % of Cmp 1a,81 % of Cmp 1a and 61 % of Cmp 1a and 119 % of Cmp 1a,56 % of Cmp 1a and 44 % of Cmp 1a and 97 % of Cmp 1a,34 % of Cmp 1a and 6.33 % of Cmp 1a and 46 % of Cmp 1a,12 % of Cmp 1a and -9 % of Cmp 1a and 7 % of Cmp 1a,8 % of Cmp 1a and 3 % of Cmp 1a and 10 % of Cmp 1a,2.67 % of Cmp 1a and 0 % of Cmp 1a and -4.67 % of Cmp 1a,-9 % of Cmp 1a (2×) and 6.33 % of Cmp 1a,1 % of Cmp 1a and -7 % of Cmp 1a and 3.33 % of Cmp 1a,-3.33 % of Cmp 1a and -8 % of Cmp 1a and 15 % of Cmp 1a,29 % of Cmp 1a and 2 % of Cmp 1a and 52 % of Cmp 1a,-15 % of Carbachol and -8 % of Carbachol and 11 % of Carbachol,2,–
"Cc1ccc(-c2nc(CC(=O)NC(C)c3ccccc3)no2)cn1 (stereo not shown) [Compound 1.32, CC(C1=CC=CC=C1)NC(CC2=NOC(C3=CN=C(C)C=C3)=N2)=O]",72 % of Cmp 1a and 83 % of Cmp 1a,–,82 ± 9,119 % of Cmp 1a and 81 % of Cmp 1a and 67 % of Cmp 1a,69 % of Cmp 1a (2×) and 43 % of Cmp 1a,37 % of Cmp 1a and 66 % of Cmp 1a and 27 % of Cmp 1a,13 % of Cmp 1a and 24 % of Cmp 1a and -2 % of Cmp 1a,-0.322 % of Cmp 1a and 4.26 % of Cmp 1a and 0.586 % of Cmp 1a,-6.64 % of Cmp 1a and 3.41 % of Cmp 1a and 1.32 % of Cmp 1a,-5 % of Cmp 1a and 2.31 % of Cmp 1a and 1.1 % of Cmp 1a,10 % of Cmp 1a and 3 % of Cmp 1a and 2.26 % of Cmp 1a,1.63 % of Cmp 1a and 4.29 % of Cmp 1a and 1.12 % of Cmp 1a,-8 % of Cmp 1a and 9 % of Cmp 1a and -2.5 % of Cmp 1a,66 % of Cmp 1a and 64 % of Cmp 1a and 48 % of Cmp 1a,-19 % of Carbachol and -6 % of Carbachol and 8 % of Carbachol,3.16,–
"Cc1nc(-c2nc(CC(=O)NC(C)c3ccccc3)no2)cs1 (stereo not shown) [Compound 1.15, CC(C1=CC=CC=C1)NC(CC2=NOC(C3=CSC(C)=N3)=N2)=O]",96 % of Cmp 1a and 108 % of Cmp 1a and 104 % of Cmp 1a,–,105 ± 4,94 % of Cmp 1a and 99 % of Cmp 1a and 118 % of Cmp 1a and 102 % of Cmp 1a,101 % of Cmp 1a and 90 % of Cmp 1a and 112 % of Cmp 1a and 100 % of Cmp 1a,104 % of Cmp 1a and 84 % of Cmp 1a and 109 % of Cmp 1a and 112 % of Cmp 1a,70 % of Cmp 1a and 62 % of Cmp 1a and 81 % of Cmp 1a and 93 % of Cmp 1a,46 % of Cmp 1a (2×) and 31 % of Cmp 1a and 57 % of Cmp 1a,12 % of Cmp 1a and 11 % of Cmp 1a and 21 % of Cmp 1a and 17 % of Cmp 1a,8 % of Cmp 1a and -0.333 % of Cmp 1a and 13 % of Cmp 1a and 5.67 % of Cmp 1a,1.67 % of Cmp 1a and -3.67 % of Cmp 1a and 8 % of Cmp 1a and -2 % of Cmp 1a,1 % of Cmp 1a and 15 % of Cmp 1a and 11 % of Cmp 1a and 10 % of Cmp 1a,0.667 % of Cmp 1a and 7 % of Cmp 1a (2×) and 12 % of Cmp 1a,7 % of Cmp 1a and 2.33 % of Cmp 1a,3 % of Carbachol and 14 % of Carbachol,0.501,3- to 25 fold
